Laboratory results from ChEMBL document CHEMBL5321287, “Discovery, Synthesis, and Evaluation of Novel Dual Inhibitors of a Vascular Endothelial Growth Factor Receptor and Poly(ADP-Ribose) Polymerase for BRCA Wild-Type Breast Cancer Therapy” (J Med Chem, 2023).

How the values were obtained:
[1] = target: Vascular endothelial growth factor receptor 1 (Homo sapiens, UniProt P17948); assay: Inhibition of VEGFR1 (unknown origin) by Z'-Lyte kinase assay
[2] = target: Vascular endothelial growth factor receptor 3 (Homo sapiens, UniProt P35916); assay: Inhibition of VEGFR3 (unknown origin) by Z'-Lyte kinase assay
[3] = target: Macrophage colony-stimulating factor 1 receptor (Homo sapiens, UniProt P07333); assay: Inhibition of FMS (unknown origin) by Z'-Lyte kinase assay
[4] = target: Serine/threonine-protein kinase 16 (Homo sapiens, UniProt O75716); assay: Inhibition of MPSK1 (unknown origin) by Z'-Lyte kinase assay
[5] = target: Mitogen-activated protein kinase kinase kinase 11 (Homo sapiens, UniProt Q16584); assay: Inhibition of MLK3 (unknown origin) by Z'-Lyte kinase assay
[6] = target: T1, Serine/threonine-protein kinase TAO2 (Homo sapiens, UniProt Q9UL54); assay: Inhibition of TAO2 (unknown origin) by Z'-Lyte kinase assay
T1 sequence (Q9UL54 whole entry): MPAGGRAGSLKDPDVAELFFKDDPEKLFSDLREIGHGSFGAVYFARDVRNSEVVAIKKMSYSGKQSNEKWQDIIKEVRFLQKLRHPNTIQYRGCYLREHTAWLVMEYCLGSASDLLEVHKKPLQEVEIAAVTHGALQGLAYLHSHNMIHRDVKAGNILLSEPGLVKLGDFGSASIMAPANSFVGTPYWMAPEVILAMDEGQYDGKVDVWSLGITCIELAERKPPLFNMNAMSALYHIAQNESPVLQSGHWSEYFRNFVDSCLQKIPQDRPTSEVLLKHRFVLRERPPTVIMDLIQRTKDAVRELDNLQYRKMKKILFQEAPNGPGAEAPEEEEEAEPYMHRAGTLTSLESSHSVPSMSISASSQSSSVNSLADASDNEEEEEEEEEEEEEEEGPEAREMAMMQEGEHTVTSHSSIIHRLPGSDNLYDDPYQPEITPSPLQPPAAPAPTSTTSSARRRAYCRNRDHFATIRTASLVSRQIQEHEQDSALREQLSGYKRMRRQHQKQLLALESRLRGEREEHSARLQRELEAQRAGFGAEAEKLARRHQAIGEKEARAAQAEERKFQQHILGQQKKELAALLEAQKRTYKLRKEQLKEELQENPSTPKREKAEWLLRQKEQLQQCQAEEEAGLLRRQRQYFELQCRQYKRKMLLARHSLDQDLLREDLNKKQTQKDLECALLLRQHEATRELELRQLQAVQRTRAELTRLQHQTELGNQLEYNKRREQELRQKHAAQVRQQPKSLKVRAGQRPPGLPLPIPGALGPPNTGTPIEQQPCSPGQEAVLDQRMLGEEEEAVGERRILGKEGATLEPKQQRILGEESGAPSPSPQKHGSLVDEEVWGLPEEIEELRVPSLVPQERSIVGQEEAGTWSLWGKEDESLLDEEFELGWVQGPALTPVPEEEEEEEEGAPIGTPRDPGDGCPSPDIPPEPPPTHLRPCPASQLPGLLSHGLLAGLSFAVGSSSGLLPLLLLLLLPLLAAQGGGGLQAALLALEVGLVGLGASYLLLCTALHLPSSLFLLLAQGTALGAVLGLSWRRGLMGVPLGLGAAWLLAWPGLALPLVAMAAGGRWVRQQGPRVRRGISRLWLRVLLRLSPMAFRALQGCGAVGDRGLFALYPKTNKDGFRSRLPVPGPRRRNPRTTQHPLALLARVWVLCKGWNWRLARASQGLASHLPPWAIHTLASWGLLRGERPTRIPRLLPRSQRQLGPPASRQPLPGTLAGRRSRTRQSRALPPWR

[7] = target: Poly [ADP-ribose] polymerase 2 (Homo sapiens, UniProt Q9UGN5); assay: Inhibition of PARP2 (unknown origin)
[8] = Half life in Sprague-Dawley rat at 1 mg/kg, iv by LC-MS analysis; assay type: ADME, organism-based; conditions: in vivo
[9] = Cmax in Sprague-Dawley rat at 1 mg/kg, iv by LC-MS analysis; assay type: ADME, organism-based; set-up: dose 1 mg/kg, route iv; conditions: in vivo
[10] = AUC (0 to t) in Sprague-Dawley rat at 1 mg/kg, iv by LC-MS analysis; assay type: ADME, organism-based; set-up: dose 1 mg/kg, route iv; conditions: in vivo
[11] = AUC (0 to infinity) in Sprague-Dawley rat at 1 mg/kg, iv by LC-MS analysis; assay type: ADME, organism-based; set-up: dose 1 mg/kg, route iv; conditions: in vivo
[12] = Apparent volume of distribution in Sprague-Dawley rat at 1 mg/kg, iv by LC-MS analysis; assay type: ADME, organism-based; conditions: in vivo, read-out: Vz
[13] = Clearance in Sprague-Dawley rat at 1 mg/kg, iv by LC-MS analysis; assay type: ADME, organism-based; conditions: in vivo
[14] = Half life in Sprague-Dawley rat at 10 mg/kg, po via gavage by LC-MS analysis; assay type: ADME, organism-based; conditions: in vivo
[15] = Cmax in Sprague-Dawley rat at 10 mg/kg, po via gavage by LC-MS analysis; assay type: ADME, organism-based; set-up: dose 10 mg/kg, route po; conditions: in vivo
[16] = AUC (0 to t) in Sprague-Dawley rat at 10 mg/kg, po via gavage by LC-MS analysis; assay type: ADME, organism-based; set-up: dose 10 mg/kg, route po; conditions: in vivo
[17] = AUC (0 to infinity) in Sprague-Dawley rat at 10 mg/kg, po via gavage by LC-MS analysis; assay type: ADME, organism-based; set-up: dose 10 mg/kg, route po; conditions: in vivo
[18] = Oral bioavailability in Sprague-Dawley rat at 10 mg/kg administered via gavage by LC-MS analysis; assay type: ADME, organism-based; conditions: in vivo
[19] = Toxicity in BALB/c nude mouse xenografted with human MDA-MB-231 cells assessed as change in body weight at 25 to 50 mg/kg, po for 14 days; assay type: organism-based; conditions: in vivo, 336 h, dose 25-50 mg/kg, time 14 day
[20] = Toxicity in BALB/c nude mouse xenografted with human MDA-MB-231 cells assessed as damage in heart at 25 to 50 mg/kg, po for 14 days; assay type: organism-based; conditions: in vivo, 336 h, dose 25-50 mg/kg, time 14 day
[21] = Toxicity in BALB/c nude mouse xenografted with human MDA-MB-231 cells assessed as damage in lungs at 25 to 50 mg/kg, po for 14 days; assay type: organism-based; conditions: in vivo, 336 h, dose 25-50 mg/kg, time 14 day
[22] = Toxicity in BALB/c nude mouse xenografted with human MDA-MB-231 cells assessed as damage in spleen at 25 to 50 mg/kg, po for 14 days; assay type: organism-based; conditions: in vivo, 336 h, dose 25-50 mg/kg, time 14 day
[23] = Toxicity in BALB/c nude mouse xenografted with human MDA-MB-231 cells assessed as damage in liver at 25 to 50 mg/kg, po for 14 days; assay type: organism-based; conditions: in vivo, 336 h, dose 25-50 mg/kg, time 14 day
[24] = Toxicity in BALB/c nude mouse xenografted with human MDA-MB-231 cells assessed as damage in kidney at 25 to 50 mg/kg, po for 14 days; assay type: organism-based; conditions: in vivo, 336 h, dose 25-50 mg/kg, time 14 day

Vascular endothelial growth factor receptor 1, sequence (P17948 whole entry): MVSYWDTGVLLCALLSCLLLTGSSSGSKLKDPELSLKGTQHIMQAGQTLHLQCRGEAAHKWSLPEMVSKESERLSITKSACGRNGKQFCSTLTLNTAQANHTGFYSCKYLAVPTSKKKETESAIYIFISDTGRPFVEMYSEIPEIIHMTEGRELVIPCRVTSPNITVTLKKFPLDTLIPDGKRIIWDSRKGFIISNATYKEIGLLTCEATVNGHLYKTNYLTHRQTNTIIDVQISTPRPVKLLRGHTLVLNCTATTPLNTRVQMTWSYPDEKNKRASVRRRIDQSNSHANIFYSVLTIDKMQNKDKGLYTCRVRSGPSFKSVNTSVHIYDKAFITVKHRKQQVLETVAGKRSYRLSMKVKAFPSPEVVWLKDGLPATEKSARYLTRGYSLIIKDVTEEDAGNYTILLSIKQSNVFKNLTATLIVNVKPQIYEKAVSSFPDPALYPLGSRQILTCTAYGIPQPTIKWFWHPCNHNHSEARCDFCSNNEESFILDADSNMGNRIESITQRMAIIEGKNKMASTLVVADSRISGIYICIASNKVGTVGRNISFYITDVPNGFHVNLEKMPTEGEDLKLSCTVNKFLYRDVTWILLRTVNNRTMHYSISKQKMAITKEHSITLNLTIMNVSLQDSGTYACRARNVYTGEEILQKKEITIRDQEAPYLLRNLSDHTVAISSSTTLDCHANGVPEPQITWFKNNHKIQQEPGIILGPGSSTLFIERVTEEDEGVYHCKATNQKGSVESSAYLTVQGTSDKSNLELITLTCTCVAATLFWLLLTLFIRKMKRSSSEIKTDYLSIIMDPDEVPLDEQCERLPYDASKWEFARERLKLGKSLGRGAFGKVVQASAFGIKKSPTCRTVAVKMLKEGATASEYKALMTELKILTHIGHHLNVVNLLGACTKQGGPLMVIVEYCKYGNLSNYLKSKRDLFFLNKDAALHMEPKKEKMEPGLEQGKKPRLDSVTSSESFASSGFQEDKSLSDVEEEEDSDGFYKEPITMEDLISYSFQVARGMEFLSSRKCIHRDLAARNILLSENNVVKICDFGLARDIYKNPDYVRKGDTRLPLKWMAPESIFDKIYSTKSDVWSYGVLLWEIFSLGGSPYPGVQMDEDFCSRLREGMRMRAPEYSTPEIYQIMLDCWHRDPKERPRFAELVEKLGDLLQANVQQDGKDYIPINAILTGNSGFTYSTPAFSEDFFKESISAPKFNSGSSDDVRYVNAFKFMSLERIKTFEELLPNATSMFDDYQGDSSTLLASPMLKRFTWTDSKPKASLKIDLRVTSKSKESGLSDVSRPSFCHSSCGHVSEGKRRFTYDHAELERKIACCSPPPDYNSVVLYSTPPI
Poly [ADP-ribose] polymerase 2, sequence (Q9UGN5 whole entry): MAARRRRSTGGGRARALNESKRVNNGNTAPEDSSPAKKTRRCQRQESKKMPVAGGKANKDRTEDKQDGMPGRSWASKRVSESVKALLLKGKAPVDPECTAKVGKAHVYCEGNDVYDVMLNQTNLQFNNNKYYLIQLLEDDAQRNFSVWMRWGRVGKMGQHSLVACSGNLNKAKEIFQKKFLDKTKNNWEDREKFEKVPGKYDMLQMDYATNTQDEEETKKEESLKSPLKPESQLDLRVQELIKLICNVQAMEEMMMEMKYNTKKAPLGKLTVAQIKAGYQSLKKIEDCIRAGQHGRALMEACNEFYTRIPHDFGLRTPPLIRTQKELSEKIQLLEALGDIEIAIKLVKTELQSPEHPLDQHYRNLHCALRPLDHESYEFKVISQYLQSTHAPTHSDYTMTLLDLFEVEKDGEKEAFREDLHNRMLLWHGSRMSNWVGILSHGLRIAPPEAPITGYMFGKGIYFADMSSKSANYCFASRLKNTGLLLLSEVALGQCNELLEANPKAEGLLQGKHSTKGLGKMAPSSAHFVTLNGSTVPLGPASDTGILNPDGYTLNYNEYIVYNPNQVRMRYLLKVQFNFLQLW
Vascular endothelial growth factor receptor 3, sequence (P35916 whole entry): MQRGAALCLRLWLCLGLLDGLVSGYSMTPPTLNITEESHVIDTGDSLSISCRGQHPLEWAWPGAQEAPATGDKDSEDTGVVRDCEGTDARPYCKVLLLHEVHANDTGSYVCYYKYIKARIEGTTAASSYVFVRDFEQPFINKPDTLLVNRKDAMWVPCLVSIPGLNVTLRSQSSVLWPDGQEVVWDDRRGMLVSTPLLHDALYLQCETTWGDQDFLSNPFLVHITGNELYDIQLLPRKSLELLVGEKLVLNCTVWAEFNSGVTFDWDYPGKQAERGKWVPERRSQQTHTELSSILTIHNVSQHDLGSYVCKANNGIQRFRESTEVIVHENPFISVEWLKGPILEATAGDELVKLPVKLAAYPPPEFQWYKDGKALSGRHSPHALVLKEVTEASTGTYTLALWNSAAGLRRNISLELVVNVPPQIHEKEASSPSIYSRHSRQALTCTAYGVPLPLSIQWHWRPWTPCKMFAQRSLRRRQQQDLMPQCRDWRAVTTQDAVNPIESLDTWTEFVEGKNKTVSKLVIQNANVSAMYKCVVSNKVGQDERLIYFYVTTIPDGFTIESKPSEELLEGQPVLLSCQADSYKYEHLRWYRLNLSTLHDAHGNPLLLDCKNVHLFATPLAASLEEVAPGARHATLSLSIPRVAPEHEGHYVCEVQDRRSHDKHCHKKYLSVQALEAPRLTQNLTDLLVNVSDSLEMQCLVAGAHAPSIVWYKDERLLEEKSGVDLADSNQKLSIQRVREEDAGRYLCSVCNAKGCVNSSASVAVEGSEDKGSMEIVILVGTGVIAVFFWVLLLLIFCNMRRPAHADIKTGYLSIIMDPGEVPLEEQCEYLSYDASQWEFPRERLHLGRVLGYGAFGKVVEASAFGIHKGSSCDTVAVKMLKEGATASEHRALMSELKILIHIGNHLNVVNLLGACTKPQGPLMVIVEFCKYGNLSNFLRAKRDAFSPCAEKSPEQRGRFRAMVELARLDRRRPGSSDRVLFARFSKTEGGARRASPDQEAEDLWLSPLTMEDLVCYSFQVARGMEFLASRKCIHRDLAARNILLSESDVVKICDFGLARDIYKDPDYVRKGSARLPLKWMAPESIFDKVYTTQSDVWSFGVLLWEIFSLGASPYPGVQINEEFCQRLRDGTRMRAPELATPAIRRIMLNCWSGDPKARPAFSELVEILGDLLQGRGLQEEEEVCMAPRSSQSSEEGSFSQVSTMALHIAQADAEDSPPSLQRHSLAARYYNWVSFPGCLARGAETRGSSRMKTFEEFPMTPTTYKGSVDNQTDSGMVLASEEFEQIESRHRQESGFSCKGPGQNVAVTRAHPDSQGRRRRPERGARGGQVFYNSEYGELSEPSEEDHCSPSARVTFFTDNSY
Macrophage colony-stimulating factor 1 receptor, sequence (P07333 whole entry): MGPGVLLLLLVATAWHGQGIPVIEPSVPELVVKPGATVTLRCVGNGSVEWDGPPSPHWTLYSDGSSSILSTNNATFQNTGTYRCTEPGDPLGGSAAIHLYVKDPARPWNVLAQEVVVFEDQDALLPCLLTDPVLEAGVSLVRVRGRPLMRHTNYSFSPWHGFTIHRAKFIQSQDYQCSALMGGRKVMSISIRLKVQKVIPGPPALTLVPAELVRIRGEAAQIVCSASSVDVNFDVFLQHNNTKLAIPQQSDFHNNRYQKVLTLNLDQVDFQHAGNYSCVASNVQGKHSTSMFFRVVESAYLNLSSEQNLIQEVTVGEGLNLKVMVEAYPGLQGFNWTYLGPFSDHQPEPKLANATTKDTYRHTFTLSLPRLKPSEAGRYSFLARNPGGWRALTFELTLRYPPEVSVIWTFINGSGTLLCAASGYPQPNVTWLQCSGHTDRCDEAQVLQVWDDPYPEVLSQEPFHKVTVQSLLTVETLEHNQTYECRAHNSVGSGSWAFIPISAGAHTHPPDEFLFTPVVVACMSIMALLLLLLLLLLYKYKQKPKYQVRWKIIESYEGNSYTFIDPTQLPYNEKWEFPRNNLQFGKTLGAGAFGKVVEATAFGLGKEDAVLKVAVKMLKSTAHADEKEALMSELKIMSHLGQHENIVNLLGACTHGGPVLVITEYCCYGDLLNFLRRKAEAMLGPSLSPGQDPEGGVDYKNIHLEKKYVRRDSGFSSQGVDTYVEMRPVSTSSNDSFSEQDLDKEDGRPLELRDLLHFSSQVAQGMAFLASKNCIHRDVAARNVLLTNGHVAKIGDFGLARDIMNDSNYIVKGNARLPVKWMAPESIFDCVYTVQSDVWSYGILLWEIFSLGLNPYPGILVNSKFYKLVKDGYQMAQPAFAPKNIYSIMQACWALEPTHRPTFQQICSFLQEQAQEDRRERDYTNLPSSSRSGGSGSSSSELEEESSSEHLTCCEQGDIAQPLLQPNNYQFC
Serine/threonine-protein kinase 16, sequence (O75716 whole entry): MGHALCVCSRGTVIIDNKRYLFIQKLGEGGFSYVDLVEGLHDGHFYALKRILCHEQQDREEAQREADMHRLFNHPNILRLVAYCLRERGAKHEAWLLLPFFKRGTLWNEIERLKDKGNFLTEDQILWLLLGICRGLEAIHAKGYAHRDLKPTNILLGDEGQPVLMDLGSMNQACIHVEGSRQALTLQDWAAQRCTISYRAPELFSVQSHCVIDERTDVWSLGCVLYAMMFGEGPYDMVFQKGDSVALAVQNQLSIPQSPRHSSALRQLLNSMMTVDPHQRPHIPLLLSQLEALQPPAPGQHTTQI

IC50 [1]: 166 nM
IC50 [2]: 499 nM
IC50 [3]: 299 nM
IC50 [4]: 148 nM
IC50 [5]: 347 nM
IC50 [6]: 689 nM
IC50 [7]: 78.4 nM
half-life [8]: 1.2 h
Cmax [9]: 482 ng/mL
AUC(0-t) [10]: 815 ng·h/mL
AUC(0-inf) [11]: 821 ng·h/mL
Vd [12]: 2.2 L/kg
clearance [13]: 20.9 mL/min/kg
half-life [14]: 1 h
Cmax [15]: 2430 ng/mL
AUC(0-t) [16]: 4900 ng·h/mL
AUC(0-inf) [17]: 4920 ng·h/mL
bioavailability [18]: 60.1%
SMILES: Cc1ccc(Nc2nccc(N(C)c3ccc4c(C)n(C)nc4c3)n2)cc1-c1nc2c(C(N)=O)cccc2[nH]1
Activity [19]: Non-Toxic
Activity [20]: Non-Toxic
Activity [21]: Non-Toxic
Activity [22]: Non-Toxic
Activity [23]: Non-Toxic
Activity [24]: Non-Toxic
